From patent US9029386B2, “Pyridine derivatives useful as kinase inhibitors” (YM Biosciences Australia Pty Ltd, priority 2006, dated 2015)

Key:
PDGFR β tyrosine kinase = target: T1, PDGFR β tyrosine kinase (Homo sapiens, UniProt P09619); experiment: Alphascreen protein tyrosine kinase assay, PDGFRβ; type: biochemical
T1 construct: purchased Upstate Cell Signalling Solutions, CA, USA 14-463

[1] = target: T2, kinase domain of human CSF1-R (Homo sapiens, UniProt P07333); experiment: Alphascreen protein tyrosine kinase assay, CSF-1R; type: biochemical
T2 construct: from codon I553 to Q961; made in house; host or cells: Sf9 insect cells (baculovirus)
T2 sequence (P07333 553-961): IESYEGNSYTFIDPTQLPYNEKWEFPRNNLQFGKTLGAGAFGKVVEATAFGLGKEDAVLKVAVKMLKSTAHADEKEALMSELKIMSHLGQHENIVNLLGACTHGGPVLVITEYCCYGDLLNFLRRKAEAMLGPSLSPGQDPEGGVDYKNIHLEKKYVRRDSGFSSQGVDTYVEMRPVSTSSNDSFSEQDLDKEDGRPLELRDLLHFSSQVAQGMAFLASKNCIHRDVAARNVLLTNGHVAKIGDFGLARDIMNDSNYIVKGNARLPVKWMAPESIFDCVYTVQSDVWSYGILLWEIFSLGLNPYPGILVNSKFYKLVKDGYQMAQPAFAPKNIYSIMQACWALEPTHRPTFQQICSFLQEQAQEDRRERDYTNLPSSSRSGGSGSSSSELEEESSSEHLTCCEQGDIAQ
Method: (§1) For screening purposes, compounds were diluted in 96 well plates at a concentration of 20 μM. Plates were warmed at 37° C. for 30 minutes before assay.
The kinase domain of human CSF1-R from codon I553 to Q961 was cloned into the pDEST-20 expression vector (Invitrogen). The CSF1-R plasmid was then transformed into competent DH10Bac cells (Gibco), and the recombinant baculovirus produced prepared for transfection into Sf9 insect cells.
(§2) Baculovirus preparations from each of construct were infected into five liters of SF9 cells (Invitrogen) grown in SF-900 medium (Invitrogen) to a cell density of approximately 1−2×10^6 cells/ml. […] Cells were harvested and lysed. Tyrosine kinase domains were purified by affinity chromatography on a glutathione-agarose column (Scientifix Pty. Ltd. catalog #: GSH-200).
(§3) Kinase assays were performed in 384 well Optiplates (Packard) using an Alphascreen Protein Tyrosine Kinase kit. […] Alphascreen phosphotyrosine acceptor beads followed by streptavidin donor beads were added under subdued light. The Alphascreen plates were read on a Packard Fusion Alpha. Inhibitors were added to the assays thirty minutes prior to the addition of ATP. Inhibitors were added in aqueous DMSO, with DMSO concentrations never exceeding 1%.

[2] = target: T3, kinase domain of human c-kit (Homo sapiens, UniProt P10721); experiment: Alphascreen protein tyrosine kinase assay, c-KIT; type: biochemical
T3 construct: from codon M552 to end; made in house; host or cells: Sf9 insect cells (baculovirus)
Method: as §1
The kinase domain of human c-kit from codon M552 to end was cloned into the pDEST-20 expression vector (Invitrogen). The c-kit plasmid was then transformed into competent DH10Bac cells (Gibco), and the recombinant baculovirus produced prepared for transfection into Sf9 insect cells.
as §2, §3

KDR protein kinase = target: T4, KDR protein kinase (Homo sapiens, UniProt P35968); experiment: Alphascreen protein tyrosine kinase assay, KDR; type: biochemical
T4 construct: purchased Millipore 14-630M
Method: as §1
FLT-3 and PDGFR β tyrosine kinase enzymes were purchased from Upstate Cell Signalling Solutions, CA, USA (flt-3 catalog #: 14-500 and PDGFR β catalog #: 14-463). KDR protein kinase enzyme was purchased from Millipore (catalogue #14-630M).
Kinase assays were performed in 384 well Optiplates (Packard) using an Alphascreen Protein Tyrosine Kinase kit. […] The biotinylated peptides Biotin-[…]-NH2 for c-KIT and PDGFRβ and Biotin-[…]-NH2 for CSF1-R and FLT-3 (final concentration 0.1-3 μM) were used as substrates. Alphascreen phosphotyrosine acceptor beads followed by streptavidin donor beads were added under subdued light. The Alphascreen plates were read on a Packard Fusion Alpha. Inhibitors were added to the assays thirty minutes prior to the addition of ATP. Inhibitors were added in aqueous DMSO, with DMSO concentrations never exceeding 1%.

mNFS-60 = experiment: Cellular assay (Alamar Blue), mNFS-60 with human M-CSF; type: cell-based; details: human M-CSF at 20 ng/ml, 72 hr
Method: (§4) Cells for the assays were prepared by harvesting cells from culture, and then diluting them in the appropriate growth medium to between 40,000 cell/mL and 600,000 cell/mL, depending on the cell line.
(§5) The compounds to be tested were added (104, 10× final concentration) to a flat bottomed 96-well plate. The cellular suspension (80 μL per well) was added, and one hour later the growth factor was added (human M-CSF at 20 ng/ml for mNFS-60, mouse IL-3 at 5 ng/ml for Baf3-WT). The plate was then incubated for 72 hr at 37° C., 5% CO2. Alamar Blue (10^4 per well) was added and the plates returned to the incubator for a further 4-8 hours.
(§6) The plates were then read using a fluorescence plate reader at excitation 544 nm and emission 590 nm.

Baf3-WT = experiment: Cellular assay (Alamar Blue), Baf3-WT with mouse IL-3; type: cell-based; details: mouse IL-3 at 5 ng/ml, 72 hr
Method: as §4, §5, §6

T3 sequence (P10721 552-976 limits assumed): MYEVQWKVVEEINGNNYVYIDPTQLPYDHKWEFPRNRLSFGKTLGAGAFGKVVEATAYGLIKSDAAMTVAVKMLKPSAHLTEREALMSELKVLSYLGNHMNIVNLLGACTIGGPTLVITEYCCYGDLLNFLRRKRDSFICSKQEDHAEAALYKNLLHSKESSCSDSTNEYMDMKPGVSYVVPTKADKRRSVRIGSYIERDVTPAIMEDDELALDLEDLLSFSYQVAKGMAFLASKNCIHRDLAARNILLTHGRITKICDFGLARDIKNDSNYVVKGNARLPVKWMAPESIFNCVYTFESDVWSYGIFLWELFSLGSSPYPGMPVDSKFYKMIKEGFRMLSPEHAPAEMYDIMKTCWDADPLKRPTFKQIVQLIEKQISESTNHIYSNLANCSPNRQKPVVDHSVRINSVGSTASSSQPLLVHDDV
T4 sequence (P35968 20-1356): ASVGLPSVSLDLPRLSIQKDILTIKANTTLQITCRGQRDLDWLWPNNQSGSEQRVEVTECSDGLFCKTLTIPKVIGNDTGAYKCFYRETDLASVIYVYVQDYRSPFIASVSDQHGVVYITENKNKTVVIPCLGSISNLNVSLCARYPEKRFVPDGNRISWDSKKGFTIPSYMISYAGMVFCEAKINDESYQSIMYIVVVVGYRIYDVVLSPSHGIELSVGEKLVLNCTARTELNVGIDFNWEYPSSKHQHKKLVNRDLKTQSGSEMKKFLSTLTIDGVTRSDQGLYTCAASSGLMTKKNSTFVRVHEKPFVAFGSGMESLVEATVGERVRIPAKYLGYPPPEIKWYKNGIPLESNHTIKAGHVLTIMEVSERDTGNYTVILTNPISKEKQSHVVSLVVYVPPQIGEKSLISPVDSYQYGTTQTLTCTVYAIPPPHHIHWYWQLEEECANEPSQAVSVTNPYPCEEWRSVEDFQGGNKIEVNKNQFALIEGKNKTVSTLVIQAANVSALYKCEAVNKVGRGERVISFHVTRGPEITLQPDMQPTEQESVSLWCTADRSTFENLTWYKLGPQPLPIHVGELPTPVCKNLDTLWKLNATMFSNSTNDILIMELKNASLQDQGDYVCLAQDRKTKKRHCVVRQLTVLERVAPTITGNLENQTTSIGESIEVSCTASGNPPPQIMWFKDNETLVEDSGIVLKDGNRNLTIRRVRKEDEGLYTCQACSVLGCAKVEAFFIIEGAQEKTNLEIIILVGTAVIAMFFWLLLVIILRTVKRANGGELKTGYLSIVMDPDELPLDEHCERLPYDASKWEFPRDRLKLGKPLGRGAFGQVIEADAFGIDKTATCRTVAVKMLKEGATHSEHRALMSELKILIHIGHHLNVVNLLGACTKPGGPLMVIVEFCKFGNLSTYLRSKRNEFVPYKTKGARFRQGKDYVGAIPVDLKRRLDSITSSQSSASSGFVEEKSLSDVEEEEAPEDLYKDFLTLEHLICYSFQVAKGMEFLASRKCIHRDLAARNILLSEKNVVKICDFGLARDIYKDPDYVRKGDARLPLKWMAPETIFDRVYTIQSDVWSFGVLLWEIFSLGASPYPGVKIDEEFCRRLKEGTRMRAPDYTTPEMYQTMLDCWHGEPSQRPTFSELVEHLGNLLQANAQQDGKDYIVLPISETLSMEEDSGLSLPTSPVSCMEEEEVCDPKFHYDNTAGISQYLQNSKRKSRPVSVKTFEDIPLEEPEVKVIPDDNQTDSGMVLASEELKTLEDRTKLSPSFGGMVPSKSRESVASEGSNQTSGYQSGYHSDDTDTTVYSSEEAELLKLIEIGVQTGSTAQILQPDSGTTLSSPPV
T1 sequence (P09619 33-1106): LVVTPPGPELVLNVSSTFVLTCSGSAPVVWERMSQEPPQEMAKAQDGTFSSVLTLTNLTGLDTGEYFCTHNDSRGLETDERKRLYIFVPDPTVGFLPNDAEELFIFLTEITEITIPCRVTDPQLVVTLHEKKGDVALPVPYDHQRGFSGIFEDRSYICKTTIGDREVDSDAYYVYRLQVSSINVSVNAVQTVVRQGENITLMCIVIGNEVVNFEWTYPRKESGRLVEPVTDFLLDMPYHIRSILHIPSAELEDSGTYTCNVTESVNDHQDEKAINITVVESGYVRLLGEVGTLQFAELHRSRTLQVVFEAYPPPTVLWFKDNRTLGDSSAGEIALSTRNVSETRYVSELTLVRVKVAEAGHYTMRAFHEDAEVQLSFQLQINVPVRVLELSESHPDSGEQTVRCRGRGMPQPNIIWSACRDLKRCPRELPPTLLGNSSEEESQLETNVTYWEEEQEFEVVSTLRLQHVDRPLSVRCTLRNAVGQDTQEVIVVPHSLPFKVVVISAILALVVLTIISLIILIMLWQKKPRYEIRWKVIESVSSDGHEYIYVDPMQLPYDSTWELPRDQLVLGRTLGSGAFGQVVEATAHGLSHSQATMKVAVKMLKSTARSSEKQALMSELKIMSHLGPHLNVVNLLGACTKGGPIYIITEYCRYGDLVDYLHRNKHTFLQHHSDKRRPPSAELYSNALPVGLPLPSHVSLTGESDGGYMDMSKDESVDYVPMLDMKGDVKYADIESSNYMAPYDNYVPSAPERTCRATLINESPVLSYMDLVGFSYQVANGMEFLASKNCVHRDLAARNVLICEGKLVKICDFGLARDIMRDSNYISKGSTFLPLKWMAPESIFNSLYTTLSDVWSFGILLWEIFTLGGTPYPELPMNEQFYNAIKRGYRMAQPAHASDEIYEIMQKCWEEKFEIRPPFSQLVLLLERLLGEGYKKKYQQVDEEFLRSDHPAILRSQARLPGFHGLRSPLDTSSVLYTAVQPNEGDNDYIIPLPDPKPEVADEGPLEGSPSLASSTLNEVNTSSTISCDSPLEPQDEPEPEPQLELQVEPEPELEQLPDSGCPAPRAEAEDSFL

SMILES | IC50 (PDGFR β tyrosine kinase) [nM] | IC50 [1] [nM] | IC50 [2] [nM] | IC50 (KDR protein kinase) [nM] | IC50 (Baf3-WT) [nM] | IC50 (mNFS-60) [nM]
CC(Nc1cncc(-c2ccc(N)cc2)n1)c1cccc(NC(=O)c2cccnc2)c1 (racemic) [Compound 22] | < 1000 | < 100 | < 100 | – | – | –
COc1cc(-c2cncc(N[C@@H](C)c3cccc(NC(=O)c4cccnc4)c3)n2)ccc1O [Compound 3] | < 100 | – | < 100 | – | – | –
C[C@H](Nc1cncc(-c2cccnc2)n1)c1cccc(NC(=O)c2cccnc2)c1 [Compound 11] | < 1000 | < 1000 | < 1000 | – | – | –
COc1cccc(-c2cncc(N[C@@H](C)c3cccc(NC(=O)c4cccnc4)c3)n2)c1 [Compound 13] | < 100 | < 100 | < 100 | – | – | –
C[C@H](Nc1cncc(-c2cccc(NS(C)(=O)=O)c2)n1)c1cccc(NC(=O)c2cccnc2)c1 [Compound 16] | < 1000 | < 100 | < 100 | – | – | –
C[C@H](Nc1cncc(-c2cn[nH]c2)n1)c1cccc(NC(=O)c2cccnc2)c1 [Compound 19] | < 1000 | < 100 | < 100 | – | – | –
COc1ccc(-c2cncc(N[C@@H](C)c3cccc(NC(=O)c4cccnc4)c3)n2)c(OC)n1 [Compound 20] | < 1000 | < 100 | < 100 | – | – | –
COc1cc(-c2cncc(N[C@@H](C)c3cccc(NC(=O)c4cncc(C)c4)c3)n2)ccc1OP(=O)(O)O [Compound 35] | < 1000 | < 100 | < 1000 | – | – | –
COc1cccc(-c2cncc(N[C@@H](C)c3cccc(NC(=O)c4ccc(C)nc4)c3)n2)c1 [Compound 36] | < 1000 | < 100 | < 100 | – | – | –
Cc1cncc(C(=O)Nc2cccc([C@H](C)Nc3cncc(Br)c3)c2)c1 [Compound 62] | < 100 | – | < 100 | < 100 | > 10000 | < 1000
Cc1cncc(C(=O)Nc2cccc([C@H](C)Nc3cncc(-c4ccc(N5CCOCC5)cc4)n3)c2)c1 [Compound 65] | < 100 | < 100 | < 100 | < 100 | > 10000 | < 200
C[C@H](Nc1cncc(Cl)n1)c1cccc(NC(=O)c2cccc(CN3CCN(C)CC3)c2)c1 [Compound 127] | – | – | – | – | > 10000 | < 1000
Cc1ccc(NC(=O)c2cccc(C(F)(F)F)c2)cc1[C@H](C)Nc1cncc(Cl)n1 [Compound 169] | – | < 1000 | < 1000 | < 100 | < 10000 | < 200
Cc1cn(-c2cncc(N[C@@H](C)c3cccc(NC(=O)c4cccc(C(F)(F)F)c4)c3)n2)cn1 [Compound 179] | – | < 100 | < 100 | < 100 | < 10000 | < 200
Cc1cncn1-c1cncc(N[C@@H](C)c2cccc(NC(=O)c3cccc(C(F)(F)F)c3)c2)n1 [Compound 188] | – | < 100 | < 100 | < 100 | > 10000 | < 200
C[C@H](Nc1cncc(-c2cccc(N3CCOCC3)c2)n1)c1cccc(NC(=O)c2ccc(F)c(Cl)c2)c1 [Compound 189] | – | < 100 | < 1000 | < 100 | > 10000 | < 200
COc1cccc(C(=O)Nc2cccc([C@H](C)Nc3cncc(-c4cccc(N5CCOCC5)c4)n3)c2)c1 [Compound 190] | – | < 100 | < 100 | < 100 | > 10000 | < 200
C[C@H](Nc1cncc(-c2ccc(CN3CCN(C)CC3)cc2)n1)c1cccc(NC(=O)c2cccc(C(F)(F)F)c2)c1 [Compound 191] | – | < 100 | < 100 | < 100 | < 10000 | < 200
Cc1ccc(F)c(C(=O)Nc2cccc([C@H](C)Nc3cncc(-c4cccc(N5CCOCC5)c4)n3)c2)c1 [Compound 192] | – | < 100 | < 100 | < 100 | > 10000 | < 200

The next lines start with results.

IC50 (PDGFR β tyrosine kinase) [nM] | IC50 [1] [nM] | IC50 [2] [nM] | IC50 (KDR protein kinase) [nM] | IC50 (Baf3-WT) [nM] | SMILES | IC50 (mNFS-60) [nM]
< 100 | < 100 | < 1000 | < 100 | > 10000 | COc1cccc(-c2cncc(N[C@@H](C)c3cccc(NC(=O)c4cccc(C)c4)c3)n2)c1 [Compound 100] | < 200
– | < 100 | – | – | > 10000 | C[C@H](Nc1cncc(-c2ccc(S(N)(=O)=O)cc2)n1)c1cccc(NC(=O)c2cccc(C(F)(F)F)c2)c1 [Compound 173] | < 1000
– | < 100 | < 100 | < 100 | > 10000 | C[C@H](Nc1cncc(-c2ccc(CO)cc2)n1)c1cccc(NC(=O)c2cccc(C(F)(F)F)c2)c1 [Compound 174, (S)—N-(3-(1-(6-(4-(hydroxymethyl)phenyl)pyrazin-2-ylamino)ethyl)phenyl)-3-(trifluoromethyl)benzamide] | < 200
– | < 100 | < 1000 | < 100 | < 10000 | C[C@H](Nc1cncc(-c2cccc(S(N)(=O)=O)c2)n1)c1cccc(NC(=O)c2cccc(C(F)(F)F)c2)c1 [Compound 178] | < 200
– | < 100 | < 100 | < 100 | < 10000 | C[C@H](Nc1cncc(-c2cccc(S(C)(=O)=O)c2)n1)c1cccc(NC(=O)c2cccc(C(F)(F)F)c2)c1 [Compound 181] | < 200
– | < 100 | < 1000 | < 100 | > 10000 | C[C@H](Nc1cncc(-c2ccc(S(C)(=O)=O)cc2)n1)c1cccc(NC(=O)c2cccc(C(F)(F)F)c2)c1 [Compound 182] | < 200
– | < 100 | < 1000 | < 100 | < 10000 | C[C@H](Nc1cncc(-c2ccc(NS(C)(=O)=O)cc2)n1)c1cccc(NC(=O)c2cccc(C(F)(F)F)c2)c1 [Compound 183] | < 200
– | < 100 | < 1000 | < 100 | < 10000 | C[C@H](Nc1cncc(-c2cccc(CO)c2)n1)c1cccc(NC(=O)c2cccc(C(F)(F)F)c2)c1 [Compound 185] | < 200
– | < 100 | < 1000 | < 100 | > 10000 | C[C@H](Nc1cncc(-c2ccc(N3CCOCC3)nc2)n1)c1cccc(NC(=O)c2cccc(C(F)(F)F)c2)c1 [Compound 187] | < 200
